Experimental data from PMC6271241, “Several Human Cyclin-Dependent Kinase Inhibitors, Structurally Related to Roscovitine, As New Anti-Malarial Agents” (Molecules, 2014).
Like-named read-outs stand apart in the source and are kept apart here.

What was measured:
Pf3D7 = assay: [3H]hypoxanthine incorporation growth assay, Pf3D7; assay type: cell-based, Plasmodium falciparum; conditions: for IC50: Plasmodium falciparum
Experimental: (§1) A selection of 15 molecules 4b–c, 10–13 representing the different 2,6,9-trisubstituted purine series, including newly synthesized products was screened as anti-malarial agents on two different P. falciparum strains, Pf3D7, a standard drug-sensitive African stain, and Pf7G8, a brazilian chloroquino-resistant strain (Figure 3). The compound activity was evaluated during the parasitic erythocytic cycle, by the means of a [^3H] hypoxanthine incorporation assay. It is directly correlated to parasite viability, as described in the experimental section.
(§2) At first, the activity of the fifteen compounds was screened at three different concentrations (10, 50 and 100 µM) on Pf3D7. Chloroquine which is not a kinase inhibitor, but which is the antimalarial reference drug was used as the positive control. […] Chloroquine was again used as a positive control.
(§3) Compounds were tested against synchronous ring-stage parasites of Pf3D7 and Pf7G8 strains. Drugs testing were carried out in 96-well microtiter plates. The chloroquine (CQ) diphosphate was purchased from Sigma (Lyon, France). […] For each assay, each drug dilution was analyzed in triplicate.
(§4) For the in vitro isotopic microtest, 200 µL of the suspension of synchronous parasitized red blood cells with >90% of the parasites at the ring stage (final parasitaemia, 0.3%; final haematocrit, 4%) per well were plated in 96-well plates that contained serial CQ or compounds concentrations. […] The plates were incubated at 37 °C, in an atmosphere of 5% O2, 5% CO2, and 90% N2 for 48 h. Immediately after incubation, plates were frozen and then thawed to lyse the erythrocytes. Cultures were harvested onto glass fiber filters and washed using a cell harvester (FilterMAT; Skatron Instruments, Dalsletta, Norway). The dried fiber filter papers were mixed with 2 mL of scintillation fluid (OptiScint; Perkin-Elmer, Waltham, UK). […] The initial value and the asymptotic result for high concentrations were fixed to 0% and 100%, respectively, available on the web.

Pf7G8 = assay: [3H]hypoxanthine incorporation growth assay, Pf7G8; assay type: cell-based, Plasmodium falciparum; conditions: for IC50: Plasmodium falciparum
Experimental: as §1, §2, §3, §4

DYRK1A [1] = tested on: DYRK1A; parameters: method as in PMID 17850214; conditions: at 1 µM; cited from earlier work
[2] = parameters: method as in PMID 12809528; conditions: cited from earlier work
CK1δ/ε [3] = tested on: CK1δ/ε; parameters: method as in PMID 18698753; conditions: read-out: IC50 CK1, cited from earlier work
N2A-APP659 cell model = tested on: N2A-APP659 cell model; parameters: method as in PMID 18698753; conditions: dose-dependent; cited from earlier work
CK1δ/ε [4] = assay: CK1δ/ε kinase assay (CKS peptide); conditions: read-out: IC50 CK1δ/ε; 15 µM ATP; Table 1
GSK-3α/β = GSK-3α/β kinase assay (GS-1 peptide); conditions: read-out: IC50 GSK-3αβ; 15 µM ATP; Table 1; >10 = no activity at 10 µM
CDK5/p25 = biological target: T1, CDK5/p25 (Homo sapiens, UniProt Q00535); assay: CDK5/p25 kinase assay ([γ-33P] ATP, histone H1); assay type: biochemical
T1 construct: made in house
Experimental: (§5) CDK1/cyclin B (M phase starfish oocytes, native), CDK2/cyclin A (human, recombinant) and CDK5/p25 (human, recombinant) were prepared as previously described. […] ATP (3000 Ci/mmol; 10 mCi/mL) in a final volume of 30 µL. After 30 min incubation at 30 °C, 25 µL aliquots of supernatant were spotted onto 2.5 cm × 3 cm pieces of Whatman P81 phosphocellulose paper, and, 20 s later, the filters were washed five times (for at least 5 min each time) in a solution of 10 mL of phosphoric acid/liter of water. The wet filters were counted in the presence of 1 mL of ACS (Amersham, Pittsburgh, PA, USA) scintillation fluid.

CDK1/cyclin B [5] = assay: CDK1/cyclin B kinase assay ([γ-33P] ATP, histone H1); assay type: biochemical, starfish; conditions: 15 µM ATP, Table 1
Experimental: as §5

DYRK1A [6] = biological target: DYRK1A (Homo sapiens, UniProt Q13627); assay: DYRK1A kinase assay (Woodtide); assay type: biochemical; conditions: 15 µM ATP; Table 1
CDK1/cyclin B [7] = assay: CDK1/cyclin B kinase assay ([γ-33P] ATP, histone H1); assay type: biochemical, starfish; conditions: Table A1; read-out: IC50 on HsCDKs HsCDK1
CDK2/cyclin A = biological target: T2, CDK2/cyclin A (Homo sapiens, UniProt P24941); assay: CDK2/cyclin A kinase assay ([γ-33P] ATP, histone H1); assay type: biochemical; conditions: 15 µM ATP, Table 1
T2 construct: made in house
Experimental: as §5

CDK1/cyclin B [8] = tested on: CDK1/cyclin B; parameters: method as in PMID 18698753; conditions: previously reported; cited from earlier work
CK1 = tested on: CK1; parameters: method as in PMID 10662688; conditions: cited from earlier work
[9] = CDK5/p25, 15 µM ATP, Table 1, read-out: IC50 CDK5
[10] = Table A1, read-out: IC50 on HsCDKs HsCDK5
[11] = 48 h, drug-sensitive strain, 48 h, Table 2, read-out: Growth IC50 Pf3D7
[12] = Table A1, N.I. = not inhibitor, read-out: IC50 on P. falciparum Strains Pf3D7
[13] = Table A1, N.I. = not inhibitor, read-out: IC50 on P. falciparum Strains Pf7G8
[14] = chloroquino-resistant strain, 48 h, Table 2, read-out: Growth IC50 Pf7G8

T1 sequence (Q00535 whole entry): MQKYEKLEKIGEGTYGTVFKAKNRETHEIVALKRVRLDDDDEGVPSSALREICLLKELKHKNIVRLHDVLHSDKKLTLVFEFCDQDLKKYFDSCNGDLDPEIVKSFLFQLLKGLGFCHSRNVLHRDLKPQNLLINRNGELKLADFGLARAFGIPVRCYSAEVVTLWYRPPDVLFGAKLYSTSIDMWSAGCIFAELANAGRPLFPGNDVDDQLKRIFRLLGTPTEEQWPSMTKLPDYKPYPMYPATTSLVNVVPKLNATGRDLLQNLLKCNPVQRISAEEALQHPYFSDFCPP
T1 sequence (Q15078 99-307 partner limits assumed): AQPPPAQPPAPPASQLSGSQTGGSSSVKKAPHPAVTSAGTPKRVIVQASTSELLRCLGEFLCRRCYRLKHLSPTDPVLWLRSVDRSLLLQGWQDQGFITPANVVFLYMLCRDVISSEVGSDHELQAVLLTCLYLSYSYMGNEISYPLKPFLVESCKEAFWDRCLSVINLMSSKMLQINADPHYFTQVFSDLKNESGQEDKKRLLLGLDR

Row | IC50 (CK1δ/ε [4]) [nM] | IC50 (GSK-3α/β) [nM] | IC50 (CDK5/p25; [9]) [nM] | IC50 (CDK1/cyclin B [5]) [nM] | IC50 (CDK5/p25; [10]) [nM] | IC50 (CDK1/cyclin B [7]) [nM] | SMILES | IC50 on P. falciparum Strains Pf3D7 (Pf3D7; Table A1, N.I. = not inhibitor) | IC50 on P. falciparum Strains Pf7G8 (Pf7G8; Table A1, N.I. = not inhibitor) | also measured
1 | – | – | – | – | – | – | CCN(CC)CCCC(C)Nc1ccnc2cc(Cl)ccc12 (centres unmarked) [Chloroquine, chloroquine, reference compound] | – | – | IC50 (Pf3D7; 48 h, read-out: Growth IC50 Pf3D7): 30 nM; IC50 (Pf7G8; 48 h, read-out: Growth IC50 Pf7G8): 180 nM
2 | – | – | – | – | – | – | CC[C@H](CO)Nc1nc(NCc2ccccc2)c2ncn(C(C)C)c2n1 [Compound 1, (R)-roscovitine] | – | – | remaining DYRK1A kinase activity (DYRK1A [1]): 87%; maximal tolerated dose ([2]; human, daily oral dose): 2 g; oral bioavailability ([2]; humans, oral administration): good oral bioavailability
3 | 10 | > 10000 | 80 | 220 | – | – | CC[C@H](CO)Nc1nc(Nc2cccc(-c3ccccn3)c2)c2ncn(C(C)C)c2n1 [Compound 3] | – | – | IC50 (CK1δ/ε [3]): 14 nM; amyloïd-β production (N2A-APP659 cell model): antagonizes amyloïd-β production
4 | 1000 | 1000 | 1000 | – | – | – | CC(C)n1cnc2c(Nc3ccc(Br)cc3)nc(Nc3ncccn3)nc21 [Compound 4a] | – | – | IC50 (DYRK1A [6]): 3000 nM
5 | > 10000 | > 10000 | > 10000 | – | > 10000 | – | CC(C)n1cnc2c(Nc3ccccn3)nc(Nc3ncccn3)nc21 [Compound 4b] | N.I. | N.I. | IC50 (DYRK1A [6]): 8000 nM
6 | > 10000 | > 10000 | 4300 | 3000 | – | 3000 | CC(C)n1cnc2c(Nc3cccnc3)nc(Nc3ncccn3)nc21 [Compound 4c] | N.I. | N.I. | IC50 (CDK2/cyclin A): 1800 nM; IC50 (DYRK1A [6]): 8000 nM
7 | 2800 | > 10000 | 7000 | 9300 | – | – | CC(C)n1cnc2c(Nc3ccncc3)nc(Nc3ncccn3)nc21 [Compound 4d] | – | – | IC50 (DYRK1A [6]): 5200 nM
8 | – | – | 400 | – | – | – | CC(C)n1cnc2c(Nc3cncnc3)nc(Nc3cncnc3)nc21 [Compound 5] | – | – | IC50 (CDK2/cyclin A): 200 nM
9 | 1100 | > 10000 | – | – | – | – | CC(C)n1cnc2c(Nc3cnccn3)nc(Nc3cnccn3)nc21 [Compound 6] | – | – | IC50 (CDK2/cyclin A): 2800 nM; IC50 (DYRK1A [6]): 500 nM
10 | 200 | > 10000 | 30 | 10 | – | 10 | CC[C@H](CO)Nc1nc(Nc2ccc(-c3cccnc3)nc2)c2ncn(C(C)C)c2n1 [Compound 10, (R)-2-(1-Hydroxybut-2-ylamino)-6-[6-(3-pyridyl)pyrid-3-ylamino]-9-iso-propylpurine] | N.I. | N.I. | –
11 | 40 | > 10000 | 400 | 800 | – | 800 | CC[C@@H](CO)Nc1nc(Nc2cccc(-c3ccccn3)c2)c2ncn(C(C)C)c2n1 [Compound 11, (S)-2-(1-Hydroxybut-2-ylamino)-6-[3-(2-pyridyl)phenylamino]-9-iso-propylpurine] | – | – | IC50 (Pf3D7; [11]): 6530 nM; IC50 (Pf3D7; [12]): 6530 nM; IC50 (Pf7G8; [13]): 2060 nM; IC50 (Pf7G8; [14]): 2060 nM
12 | 200 | > 10000 | 100 | 200 | – | 200 | CC[C@@H](CO)Nc1nc(Nc2cccc(-c3cccnc3)c2)c2ncn(C(C)C)c2n1 [Compound 12, (S)-2-(1-Hydroxybut-2-ylamino)-6-[3-(3-pyridyl)phenylamino]-9-iso-propylipurine] | – | – | IC50 (Pf3D7; [12]): 5370 nM; IC50 (Pf7G8; [13]): 1550 nM; IC50 (Pf7G8; [14]): 1550 nM
13 | 500 | > 10000 | – | 200 | – | 200 | CC[C@@H](CO)Nc1nc(Nc2ccc(-c3ccccn3)cc2)c2ncn(C(C)C)c2n1 [Compound 13, (S)-2-(1-Hydroxybut-2-ylamino)-6-[4-(2-pyridyl)phenylamino]-9-iso-propylpurine] | N.I. | N.I. | IC50 (CDK2/cyclin A): 200 nM
14 | – | – | – | – | 30 | 50 | CC[C@H](CO)Nc1nc(Nc2ccc(-c3ccccn3)cc2)c2ncn(C(C)C)c2n1 [Compound 14] | N.I. | N.I. | –
15 | – | – | – | – | 50 | 180 | CC[C@H](CO)Nc1nc(Nc2cccc(-c3cccnc3)c2)c2ncn(C(C)C)c2n1 [Compound 15] | N.I. | N.I. | –
16 | – | – | – | – | 100 | 180 | CC[C@@H](CO)Nc1nc(Nc2ccc(-c3cncnc3)cc2)c2ncn(C(C)C)c2n1 [Compound 16] | N.I. | N.I. | –
17 | – | – | – | – | 50 | 180 | CC(C)n1cnc2c(Nc3cccc(-c4cccnc4)c3)nc(Cl)nc21 [Compound 17] | N.I. | N.I. | –
18 | – | – | – | – | 730 | 410 | CC(C)n1cnc2c(Nc3ccc(Br)cc3)nc(-c3cccnc3)nc21 [Compound 18] | N.I. | N.I. | IC50 (CK1δ/ε [3]; previously reported): 100 nM; IC50 (CDK1/cyclin B [8]): 410 nM
19 | – | – | – | – | 270 | 500 | CC[C@@H](CO)Nc1nc(Nc2ccc(-c3ncccn3)cc2)c2ncn(C(C)C)c2n1 [Compound 19] | – | – | IC50 (Pf3D7; [11]): 7130 nM; IC50 (Pf3D7; [12]): 7130 nM; IC50 (Pf7G8; [13]): 1820 nM; IC50 (Pf7G8; [14]): 1820 nM
20 | – | – | – | – | 500 | 700 | CC[C@@H](CO)Nc1nc(Nc2cccc(-c3ncccn3)c2)c2ncn(C(C)C)c2n1 [Compound 20] | – | – | IC50 (Pf3D7; [11]): 22200 nM; IC50 (Pf3D7; [12]): 22200 nM; IC50 (Pf7G8; [13]): 4660 nM; IC50 (Pf7G8; [14]): 4660 nM
21 | – | – | – | – | 60 | 40 | CC[C@H](CO)Nc1nc(Nc2ccc(-c3cncnc3)cc2)c2ncn(C(C)C)c2n1 [Compound 21] | – | – | IC50 (Pf3D7; [11]): 3050 nM; IC50 (Pf3D7; [12]): 3050 nM; IC50 (Pf7G8; [13]): 690 nM; IC50 (Pf7G8; [14]): 690 nM
22 | – | – | – | – | 600 | 600 | CC(C)n1cnc2c(Nc3ccc(Br)cc3)nc(-c3ccncc3)nc21 [Compound 22] | – | – | IC50 (CK1δ/ε [3]; previously reported): 80 nM; IC50 (Pf3D7; [11]): 1390 nM; IC50 (Pf3D7; [12]): 1390 nM; IC50 (CDK1/cyclin B [8]): 590 nM; IC50 (Pf7G8; [13]): 990 nM; IC50 (Pf7G8; [14]): 990 nM
23 | – | – | – | – | – | – | NC1=NC(=O)/C(=C2\CCNC(=O)c3[nH]c(Br)cc32)N1 [hymenialdisine] | – | – | IC50 (CK1): 30 nM
